Assays:
[1] = system: primary human macrophages; conditions: cited from earlier work
STAT3 = biological target: T1, STAT3 (mouse, UniProt P42227 2-770); experiment: co-immunoprecipitation of endogenous IRF4 from Th17-polarized cell lysate, western blot for STAT3
T1 construct: Endogenous transcription factor, probed by western blot (anti-STAT3, Cell Signaling) in the IRF4 immunoprecipitate
Procedure: Naïve CD4 positive T cells were sorted and cultured under Th17 polarizing conditions for 48 h prior to assay. Whole cells lysates were prepared with high salt buffer (10 mM Tris, 420 mM NaCl, 0.5% NP40, 1 mM EDTA), sonicated, spun to remove insoluble particles, and diluted to a final concentration of 150 mM NaCl for co-immunoprecipitation. Endogenous IRF4 was immunoprecipitated using anti-IRF4 antibody in the presence or absence of 50 ug/ml ethidium bromide.

T1 sequence (P42227 2-770 limits assumed): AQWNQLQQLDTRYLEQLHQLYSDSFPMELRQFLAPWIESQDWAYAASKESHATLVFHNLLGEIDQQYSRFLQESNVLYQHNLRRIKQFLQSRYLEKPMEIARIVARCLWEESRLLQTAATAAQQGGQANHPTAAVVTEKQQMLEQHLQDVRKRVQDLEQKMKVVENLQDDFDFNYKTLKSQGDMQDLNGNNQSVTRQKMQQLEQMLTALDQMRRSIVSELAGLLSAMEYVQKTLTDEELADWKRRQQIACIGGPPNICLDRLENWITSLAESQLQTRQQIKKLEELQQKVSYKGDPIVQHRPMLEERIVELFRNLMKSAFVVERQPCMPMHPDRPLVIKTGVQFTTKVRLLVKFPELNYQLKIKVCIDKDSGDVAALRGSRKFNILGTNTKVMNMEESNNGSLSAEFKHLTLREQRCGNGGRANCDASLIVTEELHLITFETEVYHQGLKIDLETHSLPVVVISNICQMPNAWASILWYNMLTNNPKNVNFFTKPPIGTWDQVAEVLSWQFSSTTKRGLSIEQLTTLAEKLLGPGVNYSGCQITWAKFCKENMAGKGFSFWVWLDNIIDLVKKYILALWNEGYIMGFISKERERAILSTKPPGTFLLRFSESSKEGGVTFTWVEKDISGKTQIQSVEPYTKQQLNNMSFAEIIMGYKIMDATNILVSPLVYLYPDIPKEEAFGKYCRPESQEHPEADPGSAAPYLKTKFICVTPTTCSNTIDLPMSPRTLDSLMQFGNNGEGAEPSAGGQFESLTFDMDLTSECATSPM

binding result (STAT3)	Molecule	IC50 [1] [µM]
	CCOC(=O)CCNc1cc(N2CCc3ccccc3CC2)nc(-c2ccccn2)n1 [GSK-J4]	9
no binding	IRF4 (other, mouse, UniProt Q64287 1-450, looked up, Endogenous transcription factor, immunoprecipitated with an anti-IRF4 antibody from Th17-polarized cell lysate; also called Endogenous IRF4) MNLETGSRGSEFGMSAVSCGNGKLRQWLIDQIDSGKYPGLVWENEEKSVFRIPWKHAGKQDYNREEDAALFKAWALFKGKFREGIDKPDPPTWKTRLRCALNKSNDFEELVERSQLDISDPYKVYRIVPEGAKKGAKQLTLDDTQMAMGHPYPMTAPYGSLPAQQVHNYMMPPHDRSWRDYAPDQSHPEIPYQCPVTFGPRGHHWQGPSCENGCQVTGTFYACAPPESQAPGIPIEPSIRSAEALALSDCRLHICLYYRDILVKELTTTSPEGCRISHGHTYDVSNLDQVLFPYPDDNGQRKNIEKLLSHLERGLVLWMAPDGLYAKRLCQSRIYWDGPLALCSDRPNKLERDQTCKLFDTQQFLSELQVFAHHGRPAPRFQVTLCFGEEFPDPQRQRKLITAHVEPLLARQLYYFAQQNTGHFLRGYELPEHVTTPDYHRSLRHSSIQE	
